Measurements published in PubChem BioAssay AID2060513 (Molecular Pharmacology Branch, DTP, NCI, 2025).
Values joined by “and” are separate entries in the source; they are usually repeats but may differ in a detail not shown here. Equal values may be shown once.

Tested on: 299254-011-R-J1-PDC complex spheroids viability
Assay: Anticancer human tumor 299254-011-R-J1-PDC patient-derived melanoma cell line growth inhibition [GQUAD]
Conditions: for viability, T/C: stronger effect = lower value
Description: DNA G-quadruplex Stabilizer Agents in Combinations in Complex Spheroids
A high-throughput screen of multi-cell type tumor spheroids was designed to identify active combinations of DNA G-quadruplex stabilizer agents and targeted small molecules. Complex spheroids include a stromal component modeled by human endothelial cells (HUVEC) and fibroblasts modeled by human mesenchymal stem cells (MSCs). The concentration ranges selected for each drug and investigational agent were based upon clinically achievable concentrations if the clinical Cmax of the agent was known.
Compounds. The drugs and investigational agents: pidnarulex (CX-5461; NSC782164), APTO-253 (NSC789042), BRACO-19 (NSC847499), peposertib (NSC802822), ceralasertib (NSC780249), elimusertib (NSC800525), camonsertib (NSC841442), AZD-1390 (NSC803789), olaparib (NSC753686), talazoparib (NSC767125), ART-558 (NSC835418), sotorasib (NSC818433), MRTX-1133 (NSC836407), SN-38 (NSC673596), topotecan (NSC609699), etoposide (NSC141540), doxorubicin (NSC123127), gemcitabine (NSC613327), 5-fluorouracil (NSC19893), paclitaxel (NSC125973), vemurafenib (NSC761431), panobinostat (NSC761190), R-306465 (JNJ-16241199; NSC773264), adavosertib (NSC754352), TP-3654 (NSC805149), carboplatin (NSC241240), KSQ-4279 (NSC840948), and staurosporine (NSC755774) were obtained from the National Cancer Institute (NCI) Developmental Therapeutics Program Chemical Repository (34). The FDA-approved anticancer drug set is available from the NCI Developmental Therapeutics Program. […] The stock solutions were prepared in dimethyl sulfoxide (DMSO, Sigma-Aldrich, St. Louis, MO, cat. D2650) at 800-fold the tested concentration and stored at -70 degrees C prior to their use. All drugs and investigational agents were tested over a range starting from a high concentration at or near the clinical Cmax and decreasing in half-log increments. If the clinical Cmax for an agent had not been determined, the highest concentration tested was 10 microM.
2.3 Cell Culture. All cells were maintained in an incubator at 37 degrees C and 5% CO2 with 95% humidity. The PDC lines were cultured according to standard operating procedures established by the NCI PDMR. All PDCs were thawed and cultured in Matrigel-coated flasks prepared with a working solution of 1X Ham's F-12 nutrient mix, without supplementation (Invitrogen, cat. 11765054), 100 U/mL penicillin-streptomycin (Invitrogen, cat. 15140122), and 2.5% Matrigel (Corning Inc., cat. 354248) for the first three passages. The 857933-349-R-J2-PDC line was cultured in 6C/Colon 1B media, which includes advanced DMEM/F-12 (Thermo Fisher Scientific, cat. 12634028), 10 mM HEPES (Thermo Fisher Scientific, cat. 15630080), 1X GlutaMAX supplement (Thermo Fisher Scientific, cat. 35050061), 0.1 mg/mL primocin (InvivoGen, cat. ant-pm-2), 10% defined fetal bovine serum, heat inactivated (HyClone Laboratories Inc., cat. SH30070.03HI), 50% L-WRN conditioned media (ATCC, cat. CRL-3276), 1.25 mM N-Acetyl-L-cysteine (Sigma-Aldrich, cat. A9165), 10 mM nicotinamide (Sigma-Aldrich, cat. N0636), 1X B-27 supplement (Thermo Fisher Scientific, cat. 17504044), 1X N-2 supplement (Thermo Fisher Scientific, cat. 17502048), 10 microM Y-27632 dihydrochloride (Tocris Bioscience, cat. 1254), and 50 ng/mL human EGF recombinant protein (Thermo Fisher Scientific, cat. PHG0311). The 485176-168-R4-J1-PDC line was cultured in Panc media, which includes all 6C/Colon 1B media components plus 100 ng/mL human FGF-10 (Thermo Fisher Scientific, cat. 100-26), 500 nM SB-431542 (Selleckchem, cat. S1067), and gastrin (Tocris, cat. 3006).
[…]
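Note: spheroids exposed to the agents for seven days before readout.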
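Throughout, for viability, T/C: percent viability relative to DMSO vehicle control wells = 100%.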

`CC1COCCN1c1cc(-c2ccnn2C)c2ccnc(-c3ccn[nH]3)c2n1` (stereo not given) + Cc1cnc(CNC(=O)c2c(=O)c3ccc(N4CCCN(C)CC4)nc3n3c2sc2ccccc23)cn1 showed an IC50 (curve of first compound, second compound 0.0316 µM) of 0.114 µM, an IC50 (curve of first compound, second compound 0.1 µM) of 0.121 µM and an IC50 (curve of first compound, second compound 0.316 µM) of under 0.0316 µM. The IC50 (curve of first compound, second compound 1 µM) was under 0.0316 µM, the IC50 (curve of first compound, second compound 3.16 µM) was under 0.0316 µM and the IC50 (curve of first compound, second compound 10 µM) was under 0.0316 µM. The viability, T/C (second compound 0.0316 µM, first compound 0.0316 µM) was 99.1%, the viability, T/C (second compound 0.0316 µM, first compound 0.1 µM) was 48.2% and the viability, T/C (second compound 0.0316 µM, first compound 0.316 µM) was 37.9%. For the same compound, the viability, T/C (second compound 0.0316 µM, first compound 1 µM) was 17.6%, the viability, T/C (second compound 0.0316 µM, first compound 3.16 µM) was 20% and the viability, T/C (second compound 0.0316 µM, first compound 10 µM) was 13.2%. The viability, T/C (second compound 0.1 µM, first compound 0.0316 µM) was 84.5%, the viability, T/C (second compound 0.1 µM, first compound 0.1 µM) was 55.3% and the viability, T/C (second compound 0.1 µM, first compound 0.316 µM) was 23.4%. It also gave a viability, T/C (second compound 0.1 µM, first compound 1 µM) of 14.4%, a viability, T/C (second compound 0.1 µM, first compound 3.16 µM) of 17.2% and a viability, T/C (second compound 0.1 µM, first compound 10 µM) of 12.9%. For the same compound, the viability, T/C (second compound 0.316 µM, first compound 0.0316 µM) was 40.9%, the viability, T/C (second compound 0.316 µM, first compound 0.1 µM) was 32.9% and the viability, T/C (second compound 0.316 µM, first compound 0.316 µM) was 23.6%. For the same compound, the viability, T/C (second compound 0.316 µM, first compound 1 µM) was 17.5%, the viability, T/C (second compound 0.316 µM, first compound 3.16 µM) was 16.8% and the viability, T/C (second compound 0.316 µM, first compound 10 µM) was 12.6%. For the same compound, the viability, T/C (second compound 1 µM, first compound 0.0316 µM) was 22%, the viability, T/C (second compound 1 µM, first compound 0.1 µM) was 22.2% and the viability, T/C (second compound 1 µM, first compound 0.316 µM) was 22.3%. It also gave a viability, T/C (second compound 1 µM, first compound 1 µM) of 18.8%, a viability, T/C (second compound 1 µM, first compound 3.16 µM) of 13% and a viability, T/C (second compound 1 µM, first compound 10 µM) of 15.2%. It also gave a viability, T/C (second compound 3.16 µM, first compound 0.0316 µM) of 26.5%, a viability, T/C (second compound 3.16 µM, first compound 0.1 µM) of 26.2% and a viability, T/C (second compound 3.16 µM, first compound 0.316 µM) of 18%. The viability, T/C (second compound 3.16 µM, first compound 1 µM) was 13.4%, the viability, T/C (second compound 3.16 µM, first compound 3.16 µM) was 14.9% and the viability, T/C (second compound 3.16 µM, first compound 10 µM) was 16.7%. It also gave a viability, T/C (second compound 10 µM, first compound 0.0316 µM) of 0.18%, a viability, T/C (second compound 10 µM, first compound 0.1 µM) of 0.22% and a viability, T/C (second compound 10 µM, first compound 0.316 µM) of 2.32%. For the same compound, the viability, T/C (second compound 10 µM, first compound 1 µM) was 0.18%, the viability, T/C (second compound 10 µM, first compound 3.16 µM) was 0.23% and the viability, T/C (second compound 10 µM, first compound 10 µM) was 0.22%.

With `CC(C)n1c(=O)n(C)c2cnc3cc(F)c(-c4ccc(OCCCN5CCCCC5)nc4)cc3c21` the viability, T/C (compound 0.0316 µM) was 104% and 100% and 97%, the viability, T/C (compound 0.1 µM) was 87.8% and 78.1% and 79% and the viability, T/C (compound 0.316 µM) was 102% and 101% and 90.2%. For the same compound, the viability, T/C (compound 1 µM) was 104% and 76.4% and 83.5%, the viability, T/C (compound 3.16 µM) was 93% and 75% and 78.9% and the viability, T/C (compound 10 µM) was 55.8% and 48.2% and 48.6%. For the same compound, the IC50 (curve of compound) was > 10 µM and 9.52 µM and 9.66 µM.

In the case of `C=CCn1c(=O)c2cnc(Nc3ccc(N4CCN(C)CC4)cc3)nc2n1-c1cccc(C(C)(C)O)n1`, the viability, T/C (compound 0.0316 µM) is reported as 114% and 117% and 102%, the viability, T/C (compound 0.1 µM) is reported as 98.4% and 92.5% and 100% and the viability, T/C (compound 0.316 µM) is reported as 87.5% and 73% and 83.4%. For the same compound, the viability, T/C (compound 1 µM) was 60% and 62% and 52.8%, the viability, T/C (compound 3.16 µM) was 32.2% and 34% and 37.9% and the viability, T/C (compound 10 µM) was 36.5% and 32.4% and 20.3%. The IC50 (curve of compound) was 1.58 µM and 1.57 µM and 1.38 µM.

In the case of `Cc1[nH]c2ccc(F)cc2c1-c1nc2c3cccnc3c3ncccc3c2[nH]1`, the viability, T/C (compound 0.0316 µM) is reported as 99.1% [middle of 12 runs], the viability, T/C (compound 0.316 µM) is reported as 95.6% [middle of 12 runs] and the IC50 (compound alone, run of 02/20/2024) is reported as over 10 µM. The IC50 (compound alone, run of 02/26/2024) was over 10 µM.

For `CC1COCCN1c1cc(C2(S(C)(=N)=O)CC2)nc(-c2ccnc3[nH]ccc23)n1` (stereo not given), the viability, T/C (compound 0.0316 µM) was 98.9% (2×) and 94.3%, the viability, T/C (compound 0.1 µM) was 100% and 103% and 80.5% and the viability, T/C (compound 0.316 µM) was 79.7% and 97% and 97.8%. The viability, T/C (compound 1 µM) was 68% and 100% and 61%, the viability, T/C (compound 3.16 µM) was 67.9% and 60.8% and 37.7% and the viability, T/C (compound 10 µM) was 28.7% and 29.5% and 16.5%. For the same compound, the IC50 (curve of compound) was 4.41 µM and 4.7 µM and 1.81 µM.

With `COc1ccc([C@@H](O)c2cc(-c3ncnc4cc(N5CCOCC5)ccc34)c(F)cc2Cl)nn1` the viability, T/C (compound 0.0316 µM) was 119% and 95% and 106%, the viability, T/C (compound 0.1 µM) was 103% and 97.4% and 85.3% and the viability, T/C (compound 0.316 µM) was 121% and 93.8% and 102%. For the same compound, the viability, T/C (compound 1 µM) was 89.3% and 96.7% and 82.5%, the viability, T/C (compound 3.16 µM) was 90.7% and 87.1% and 84.1% and the viability, T/C (compound 10 µM) was 43.1% and 49.8% and 47%. For the same compound, the IC50 (curve of compound) was 8.53 µM and 9.96 µM and 9.31 µM.

`C=CC(=O)N1CCN(c2nc(=O)n(-c3c(C)ccnc3C(C)C)c3nc(-c4c(O)cccc4F)c(F)cc23)C(C)C1` (stereo not given) was tested, and the viability, T/C (compound 0.0316 µM) was 79% and 95.8% and 88.2%, the viability, T/C (compound 0.1 µM) was 57.3% and 82.7% and 63.5% and the viability, T/C (compound 0.316 µM) was 81% and 65.1% and 59%. The viability, T/C (compound 1 µM) was 59.5% and 59.8% and 59%, the viability, T/C (compound 3.16 µM) was 60.7% and 61% and 69.7% and the viability, T/C (compound 10 µM) was 68.5% and 69.6% and 66.1%. For the same compound, the IC50 (curve of compound) was over 10 µM.

`CC[C@@]1(O)C(=O)OCc2c1cc1n(c2=O)Cc2cc3c(CN(C)C)c(O)ccc3nc2-1` was tested, and the viability, T/C (compound 0.000999 µM) was 91.8% and 98.4% and 103%, the viability, T/C (compound 0.00316 µM) was 94% and 117% and 106% and the viability, T/C (compound 0.00999 µM) was 93.8% and 93.5% and 91.8%. For the same compound, the viability, T/C (compound 0.0316 µM) was 85.7% and 102% and 117%, the viability, T/C (compound 0.0999 µM) was 80.3% and 103% and 96.4% and the viability, T/C (compound 0.316 µM) was 97.9% and 88% and 91.1%. The IC50 (curve of compound) was over 0.316 µM.

For `Nc1ccn(C2OC(CO)C(O)C2(F)F)c(=O)n1` (stereo not given), the viability, T/C (compound 0.0316 µM) was 95.8% and 98.2% and 86.5%, the viability, T/C (compound 0.1 µM) was 83.6% and 88.4% and 76% and the viability, T/C (compound 0.316 µM) was 80.3% and 72.2% and 61.7%. The viability, T/C (compound 1 µM) was 41.2% and 60.1% and 52.5%, the viability, T/C (compound 3.16 µM) was 58.2% and 50.2% and 50.8% and the viability, T/C (compound 10 µM) was 53.6% and 73% and 51.9%. It also gave an IC50 (curve of compound) of over 10 µM.
